Test results published in PMC10033154 (Journal of Molecular Structure, 2023).

Biological target: SARS-CoV-2 3CL protease (Severe acute respiratory syndrome coronavirus 2, UniProt P0DTD1)
Assay: FRET enzyme activity inhibition assay of SARS-CoV-2 3CLpro
Type: biochemical

How did the IC50 turn out when `COc1ccc(C=C[N+](=O)[O-])cc1OC` [compound f, 3,4-dimethoxyl-β-nitrostyrene] was run?
The IC50 was 5.07 µM.
